Source: BindingDB's records for doi:10.7270/Q2TX3CSC (Vanderbilt Screening Center for GPCRs, Ion Channels and …, 2009)

Molecular target: T1, Solute carrier family 12 member 5 (Homo sapiens, UniProt Q9H2X9)
T1 sequence (Q9H2X9 whole entry): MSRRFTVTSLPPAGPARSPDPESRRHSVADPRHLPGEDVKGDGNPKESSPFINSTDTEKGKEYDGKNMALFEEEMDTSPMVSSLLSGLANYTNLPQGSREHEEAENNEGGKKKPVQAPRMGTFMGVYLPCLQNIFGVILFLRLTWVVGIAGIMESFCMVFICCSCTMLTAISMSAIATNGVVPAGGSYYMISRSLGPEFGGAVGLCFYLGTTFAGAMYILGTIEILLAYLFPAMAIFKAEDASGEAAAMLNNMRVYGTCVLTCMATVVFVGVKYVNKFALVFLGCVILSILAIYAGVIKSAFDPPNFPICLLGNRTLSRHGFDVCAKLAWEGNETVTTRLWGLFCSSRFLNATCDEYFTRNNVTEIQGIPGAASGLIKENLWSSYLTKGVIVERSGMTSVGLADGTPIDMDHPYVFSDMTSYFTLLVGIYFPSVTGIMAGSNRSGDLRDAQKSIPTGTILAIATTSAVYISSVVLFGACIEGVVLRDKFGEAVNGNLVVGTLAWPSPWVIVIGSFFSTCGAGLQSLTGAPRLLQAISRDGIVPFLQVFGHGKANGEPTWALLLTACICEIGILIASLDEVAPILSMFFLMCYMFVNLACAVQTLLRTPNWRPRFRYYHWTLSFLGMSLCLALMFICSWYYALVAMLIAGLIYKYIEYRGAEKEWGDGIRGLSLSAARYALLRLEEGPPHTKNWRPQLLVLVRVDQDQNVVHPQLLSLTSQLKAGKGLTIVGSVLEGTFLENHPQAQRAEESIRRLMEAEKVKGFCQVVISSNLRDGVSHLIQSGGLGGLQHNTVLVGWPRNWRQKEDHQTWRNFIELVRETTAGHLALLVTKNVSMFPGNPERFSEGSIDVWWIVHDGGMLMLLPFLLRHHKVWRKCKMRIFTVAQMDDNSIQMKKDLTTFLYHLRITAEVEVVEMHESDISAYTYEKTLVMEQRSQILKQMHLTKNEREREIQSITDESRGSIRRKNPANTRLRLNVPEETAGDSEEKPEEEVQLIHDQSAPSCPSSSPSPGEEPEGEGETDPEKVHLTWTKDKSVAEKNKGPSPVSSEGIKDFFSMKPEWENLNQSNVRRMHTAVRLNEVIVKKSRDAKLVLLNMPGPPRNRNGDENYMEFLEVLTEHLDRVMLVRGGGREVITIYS
Experiment: concentration-response of KCC2 transport modulators – cell-based, HEK293 KCC2, FluoZin-2 fluorescence, dose response (AID 1736)

`CC[C@H](CO)Nc1nc(Nc2cccc(Cl)c2)c2ncn(C(C)C)c2n1` [(R)-2-(6-(3-chlorophenylamino)-9-isopropyl-9H-purin-2-ylamino)butan-1-ol] gave an EC50 of 9.54 µM.

For `COc1ccccc1NC(=S)NNC1=c2cc(Br)ccc2=NC1=O` [MLS000778253], the EC50 was 0.71 µM.
